Laboratory results: the NIST ThermoML archive (doi:10.1016/j.jct.2007.09.008)
Numbers after ± are expanded uncertainties.

Conditions: Liquid, Closed cell (Static) method

vapor or sublimation pressure (283.2 K) [kPa] | vapor or sublimation pressure (292.9 K) [kPa] | vapor or sublimation pressure (302.9 K) [kPa] | vapor or sublimation pressure (313.1 K) [kPa] | vapor or sublimation pressure (323.1 K) [kPa] | vapor or sublimation pressure (333.2 K) [kPa] | vapor or sublimation pressure (343.2 K) [kPa] | vapor or sublimation pressure (293.2 K) [kPa] | vapor or sublimation pressure (323.2 K) [kPa] | vapor or sublimation pressure (333.1 K) [kPa] | SMILES | vapor or sublimation pressure (283.1 K) [kPa] | vapor or sublimation pressure (293.1 K) [kPa] | vapor or sublimation pressure (303.1 K) [kPa] | vapor or sublimation pressure (312.9 K) [kPa] | vapor or sublimation pressure (323.3 K) [kPa] | vapor or sublimation pressure (333.3 K) [kPa] | vapor or sublimation pressure (343.1 K) [kPa]
 |  |  |  |  |  |  |  |  |  | CCC1CCC(=O)O1 (stereo unspecified) [2(3H)-furanone, 5-ethyldihydro-] | 0.075 ± 0.008 | 0.128 ± 0.008 | 0.221 ± 0.008 | 0.356 ± 0.016 | 0.564 ± 0.019 | 0.862 ± 0.027 | 1.367 ± 0.1
0.045 ± 0.002 | 0.079 ± 0.003 | 0.131 ± 0.006 | 0.213 ± 0.008 | 0.339 ± 0.012 | 0.518 ± 0.021 | 0.768 ± 0.031 |  |  |  | O=C1CCCCCO1 [6-hexanolactone] |  |  |  |  |  |  | 
 |  |  | 0.054 ± 0.004 |  |  |  | 0.011 ± 0.006 | 0.103 ± 0.006 | 0.191 ± 0.01 | CC1CCCC(=O)O1 (stereo unspecified) [2H-pyran-2-one, tetrahydro-6-methyl-] | 0.005 ± 0.002 |  | 0.025 ± 0.016 |  |  |  | 0.354 ± 0.02
